According to patent publication US8835644B2, “Broad spectrum benzothiophene-nitrothiazolide and other antimicrobials” (University of Virginia Patent Foundation, priority 2009, dated 2014):
≈ marks a conversion by molar mass, not a printed value. Where a name gives a salt, the structure may show the parent alone. Read-outs that look alike come from different tables or passages of the source.

Legend:
C. jejuni = experiment: MIC testing by broth dilution, C. jejuni; format: cell-based, Campylobacter jejuni
Method: (§1) A standard broth dilution protocol was used in 96 well microplates containing a standard dilution of the microorganism to be tested in 100 microliters of the appropriate medium. Appropriate medium: E. coli, LB medium; Staphylococcus strains, Trypticase Soy; and for H. pylori and C. jejuni, Brain Heart Infusion. The compounds to be tested were set at 32 μg/ml in 200 microliters in well one and then serially diluted to provide a range from 32 to 0.06. The wells were scored visually at 24 h. The well where there was no growth was recorded as the MIC. Clostridium difficile was tested by agar diffusion and disk diffusion (Kirby Bower) methods under anaerobic conditions on Wilkins Chalgrin agar. In these assays, zone of inhibited growth was measured and compared by relative ratio to the zone recorded for NTZ.
(§2) Representative compounds of the invention were tested in a series of assays against a series of organisms as described above. […] The organisms tested include, C. difficile, H. pylori, C. jejuni, MRSA, S. epidermidis, and E. coli. S. epidermidis and E. coli were tested in the plank and biofilm assay. A disk diffusion assay was also used for C. difficile. Direct PFOR enzyme assays were also performed. All analogues and derivatives were not tested on every organism in every type of assay (the “-” in each table means that it was not tested).

H. pylori = experiment: MIC testing by broth dilution, H. pylori; format: cell-based, Helicobacter pylori
Method: as §1, §2

E. coli = experiment: MIC testing by broth dilution, E. coli plank; format: cell-based, Escherichia coli
Method: as §1, §2

MRSA = experiment: MIC testing by broth dilution, MRSA; format: cell-based, Staphylococcus aureus
Method: as §1, §2

S. epidermidis = experiment: MIC testing by broth dilution, S. epidermidis plank; format: cell-based, Staphylococcus epidermidis
Method: as §1, §2

C. difficile = experiment: Disk diffusion (Kirby Bower), C. difficile; format: cell-based, Clostridium difficile; conditions: for Disk Diffusion (%) C. difficile: zone of inhibited growth as relative ratio to the zone for NTZ
Method: as §1, §2

E. coli biofilm = E. coli biofilm assay (activity tables); format: cell-based, Escherichia coli; conditions: biofilm; read-out: MIC (μM) E. coli Biofilm
Method: A quantitative biofilm assay was used to determine the effect of NTZ on biofilm formation (41). Strain 042 was grown overnight at 37° C. with shaking and inoculated 1:100 in 200 μl culture medium in Costar 96-well, flat-bottom, polystyrene microtiter plates containing appropriate concentrations of NTZ. Plates were incubated statically at 37° C. in a humidified incubator. At 24 h, bacterial growth was measured by either transferring […] aliquots to another microtiter plate to determine turbidity or by diluting 100 μl aliquots 1:100 in 9.9 ml PBS for quantitative plate counts on LB medium. Bacterial counts in triplicate are reported as cfu/ml. Biofilm was visualized following staining with 0.5% crystal violet (41) and the absorbance was read at 570 nm using a microplate reader (Molecular Dynamics). All experiments were in triplicate and reported as mean and standard deviation.
as §1, §2

[1] = broth dilution, Brain Heart Infusion, 24 h, read-out: MIC (μM) C. jejuni
[2] = broth dilution, Brain Heart Infusion, 24 h, read-out: MIC (μM) H. pylori
[3] = broth dilution, LB medium, 24 h, read-out: MIC (μM) E. coli Plank
[4] = broth dilution, Trypticase Soy, 24 h, read-out: MIC (μM) MRSA
[5] = broth dilution, Trypticase Soy, 24 h, read-out: MIC (μM) S. epidermidis Plank
[6] = Campylobacter jejuni, 24 h, read-out: MIC (μM) C. jejuni
[7] = Helicobacter pylori, 24 h, read-out: MIC (μM) H. pylori
[8] = Escherichia coli, 24 h, read-out: MIC (μM) E. coli Plank
[9] = Staphylococcus aureus, MRSA, 24 h, read-out: MIC (μM) MRSA
[10] = Staphylococcus epidermidis, 24 h, read-out: MIC (μM) S. epidermidis Plank

SMILES	MIC (C. jejuni; [1]) [µM]	MIC (H. pylori; [2]) [µM]	MIC (E. coli; [3]) [µM]	MIC (MRSA; [4]) [µM]	MIC (S. epidermidis; [5]) [µM]	also measured
O=C(Nc1ncc([N+](=O)[O-])s1)c1cc2cc([N+](=O)[O-])ccc2o1 [VPC16a1019]						MIC (C. jejuni; Furan analogues table, read-out: MIC C. jejuni): 4.5 µM (≈ 1.5 µg/mL); MIC (H. pylori; Furan analogues table, read-out: MIC H. pylori): 4.5 µM (≈ 1.5 µg/mL); MIC (E. coli; planktonic, Furan analogues table, read-out: MIC E. coli Plank): 95.7 µM (≈ 32 µg/mL); MIC (MRSA; Furan analogues table, read-out: MIC MRSA): 47.9 µM (≈ 16 µg/mL); MIC (S. epidermidis; planktonic, Furan analogues table, read-out: MIC S. epidermidis Plank): 23.9 µM (≈ 7.99 µg/mL); Disk Diff (%) C. difficile (C. difficile; Nitazoxanide = 100, Furan analogues table): 77%
O=C(Nc1ncc([N+](=O)[O-])s1)c1cccc(OC(F)(F)F)c1 [VPC16a1041]	9.0 (≈ 3 µg/mL)	1.1 (≈ 0.367 µg/mL)	96.0 (≈ 32 µg/mL)	6.0 (≈ 2 µg/mL)	12.0 (≈ 4 µg/mL)	Disk Diffusion (%) C. difficile (C. difficile): 90%
O=C(Nc1ncc([N+](=O)[O-])s1)c1ccc(C(F)(F)F)cc1[N+](=O)[O-] [VPC16b1016]	88.3 (≈ 32 µg/mL)	8.3 (≈ 3.01 µg/mL)	88.3 (≈ 32 µg/mL)	88.3 (≈ 32 µg/mL)	88.3 (≈ 32 µg/mL)	MIC (E. coli biofilm): 88.3 µM (≈ 32 µg/mL)
O=C(Nc1ncc([N+](=O)[O-])s1)c1ccc(F)c([N+](=O)[O-])c1 [VPC16b1017]	51.2 (≈ 16 µg/mL)	1.6 (≈ 0.5 µg/mL)	102.5 (≈ 32 µg/mL)	76.9 (≈ 24 µg/mL)	51.2 (≈ 16 µg/mL)	MIC (E. coli biofilm): 102.5 µM (≈ 32 µg/mL)
O=C(Nc1ncc([N+](=O)[O-])s1)c1cc2ccccc2[nH]1 [VPC16b1031, N-(5-Nitrothiazol-2-yl)-1H-indole-2-carboxamide]						MIC (C. jejuni; [6]): 13.9 µM (≈ 4.01 µg/mL); MIC (H. pylori; [7]): 6.9 µM (≈ 1.99 µg/mL); MIC (E. coli; [8]): 111 µM (≈ 32 µg/mL); MIC (MRSA; [9]): 27.8 µM (≈ 8.01 µg/mL); MIC (S. epidermidis; [10]): 13.9 µM (≈ 4.01 µg/mL); Disk Diffusion (%) C. difficile (C. difficile): 75%
NCCOc1ccccc1C(=O)Nc1ncc([N+](=O)[O-])s1.O=C(O)C(F)(F)F [VPC161219TFA]	14.2	1.88	75.8	75.8	75.8	Disk Diffusion (%) C. difficile (C. difficile): 81%
O=C(Nc1ccccc1)Nc1ncc([N+](=O)[O-])s1 [VPC161223, 1-(5-Nitrothiazol-2-yl)-3-phenylurea]						MIC (C. jejuni; [6]): 30.3 µM (≈ 8.01 µg/mL); MIC (H. pylori; [7]): 1.4 µM (≈ 0.37 µg/mL); MIC (E. coli; [8]): 121 µM (≈ 32 µg/mL); MIC (MRSA; [9]): 30.3 µM (≈ 8.01 µg/mL); MIC (S. epidermidis; [10]): 30.3 µM (≈ 8.01 µg/mL)
O=C(Nc1nccs1)c1sc2cc(F)ccc2c1Cl [VPC161235]						MIC (C. jejuni; Campylobacter jejuni, Thiophene analogues table, read-out: MIC C. jejuni): 102 µM (≈ 32 µg/mL); MIC (H. pylori; Helicobacter pylori, Thiophene analogues table, read-out: MIC H. pylori): 12.8 µM (≈ 4 µg/mL); MIC (E. coli; Escherichia coli, planktonic, Thiophene analogues table, read-out: MIC E. coli Plank): 102 µM (≈ 32 µg/mL); MIC (MRSA; Staphylococcus aureus, MRSA, Thiophene analogues table, read-out: MIC MRSA): 102 µM (≈ 32 µg/mL); MIC (S. epidermidis; Staphylococcus epidermidis, planktonic, Thiophene analogues table, read-out: MIC S. epidermidis Plank): 102 µM (≈ 32 µg/mL)
O=C(C=Cc1ccc(C(F)(F)F)cc1)Nc1ncc([N+](=O)[O-])s1 [VPC161239]	93.2 (≈ 32 µg/mL)	0.6 (≈ 0.206 µg/mL)	93.2 (≈ 32 µg/mL)	93.2 (≈ 32 µg/mL)	2.9 (≈ 0.996 µg/mL)	
Cl.NCCOc1cc([N+](=O)[O-])ccc1C(=O)Nc1ncc([N+](=O)[O-])s1 [VPC161256]	5.1	1.3	82.1	82.1	82.1	
COc1cc2cc(C(=O)Nc3ncc([N+](=O)[O-])s3)sc2cc1F [VPC161259]						MIC (C. jejuni; Thiophene analogues table, read-out: MIC C. jejuni): 11.3 µM (≈ 3.99 µg/mL); MIC (H. pylori; Thiophene analogues table, read-out: MIC H. pylori): 2.1 µM (≈ 0.742 µg/mL); MIC (E. coli; planktonic, Thiophene analogues table, read-out: MIC E. coli Plank): 90.6 µM (≈ 32 µg/mL); MIC (MRSA; Thiophene analogues table, read-out: MIC MRSA): 11.3 µM (≈ 3.99 µg/mL); MIC (S. epidermidis; planktonic, Thiophene analogues table, read-out: MIC S. epidermidis Plank): 11.3 µM (≈ 3.99 µg/mL)
CC(C)(C)OC(=O)COc1ccc(C(=O)Nc2ncc([N+](=O)[O-])s2)cc1 [VPC162036]	84.4 (≈ 32 µg/mL)	0.5 (≈ 0.19 µg/mL)	84.3 (≈ 32 µg/mL)	84.3 (≈ 32 µg/mL)	84.3 (≈ 32 µg/mL)	
O=C(O)COc1ccccc1C(=O)Nc1ncc([N+](=O)[O-])s1 [VPC162042, 2-(2-(5-nitrothiazol-2-ylcarbamoyl)phenoxy)acetic acid]						MIC (C. jejuni; [6]): 99 µM (≈ 32 µg/mL); MIC (H. pylori; [7]): 49.5 µM (≈ 16 µg/mL); MIC (E. coli; [8]): 99 µM (≈ 32 µg/mL); MIC (MRSA; [9]): 99 µM (≈ 32 µg/mL); MIC (S. epidermidis; [10]): 99 µM (≈ 32 µg/mL)
O=C(O)COc1ccc(C(=O)Nc2ncc([N+](=O)[O-])s2)cc1 [VPC162043]	99.0 (≈ 32 µg/mL)	99.0 (≈ 32 µg/mL)	99.0 (≈ 32 µg/mL)	99.0 (≈ 32 µg/mL)	99.0 (≈ 32 µg/mL)	
CC(=O)Nc1ccccc1C(=O)Nc1ncc([N+](=O)[O-])s1 [VPC162046b]	41.6 (≈ 12.7 µg/mL)	6.9 (≈ 2.11 µg/mL)	111.0 (≈ 34 µg/mL)	55.5 (≈ 17 µg/mL)	111.0 (≈ 34 µg/mL)	
CN(C)CCOc1ccccc1C(=O)Nc1ncc([N+](=O)[O-])s1 [VPC162052]	17.8 (≈ 5.99 µg/mL)	1.5 (≈ 0.505 µg/mL)	95.1 (≈ 32 µg/mL)	95.1 (≈ 32 µg/mL)	95.1 (≈ 32 µg/mL)	
O=C(COc1ccccc1C(=O)Nc1ncc([N+](=O)[O-])s1)Nc1ccccc1 [VPC162056]	80.3 (≈ 32 µg/mL)	0.9 (≈ 0.359 µg/mL)	80.3 (≈ 32 µg/mL)	80.3 (≈ 32 µg/mL)	80.3 (≈ 32 µg/mL)	
CCCCCCNC(=O)COc1ccccc1C(=O)Nc1ncc([N+](=O)[O-])s1 [VPC162064]	78.7 (≈ 32 µg/mL)	1.9 (≈ 0.772 µg/mL)	78.7 (≈ 32 µg/mL)	78.7 (≈ 32 µg/mL)	4.9 (≈ 1.99 µg/mL)	
O=C(COc1ccccc1C(=O)Nc1ncc([N+](=O)[O-])s1)NCCN1CCOCC1 [VPC162065]	36.7 (≈ 16 µg/mL)	2.3 (≈ 1 µg/mL)	73.5 (≈ 32 µg/mL)	73.5 (≈ 32 µg/mL)	27.6 (≈ 12 µg/mL)	
Cl.O=C(Nc1ncc([N+](=O)[O-])s1)c1ccccc1OCCNC(=O)C1CCNCC1 [VPC162068]	35.1	52.6	70.2	70.2	70.2	
NCCOC(=O)COc1ccccc1C(=O)Nc1ncc([N+](=O)[O-])s1 [VPC162082, 2-Aminoethyl 2-(2-(5-nitrothiazol-2-ylcarbamoyl)phenoxy)acetate hydrochloride]						MIC (C. jejuni; [6]): 29.8 µM; MIC (H. pylori; [7]): 6.2 µM; MIC (E. coli; [8]): 79.4 µM; MIC (MRSA; [9]): 79.4 µM; MIC (S. epidermidis; [10]): 79.4 µM
Cl.O=C(COc1ccccc1C(=O)Nc1ncc([N+](=O)[O-])s1)OC1CNC1 [VPC162083]	77.1	24.1	77.1	77.1	77.1	
